In patent US9302993B2, “8-hydroxy quinoline derivatives” (PRANA BIOTECHNOLOGY LIMITED, priority 2002, dated 2016):
Several values for one entry are separate records, joined by “and”; a condition that tells them apart may be missing. Identical values can stand only once. Like-named read-outs stand apart in the source and are kept apart here.

Legend:
[1] = molecular target: T1, hydrogen peroxide generation by Aβ in the presence of copper (Homo sapiens, UniProt P05067); test: Fluorometric H2O2 assay (Assay 1); format: biochemical; conditions: DCF/HRP, 37 C 60 min, several values in one cell = repeat determinations
T1 construct: The reaction solutions contained Aβ 1-42 at concentrations in the range of 50 nM to 1 μM
Protocol: Assay 1. Fluorometric H2O2 Assay
A fluorometric assay was used to test the ability of a test compound to inhibit hydrogen peroxide generation by Aβ in the presence of copper based on dichlorofluoroscein diacetate (DCF; Molecular Probes, Eugene Oreg.). The DCF solution (5 mM) in 100% dimethyl sulphoxide (previously purged with argon for 2 hr at 20° C.) was deacetylated in the presence of 0.25M NaOH for 30 min and neutralised at pH 7.4 to a final concentration of 1 mM. Horseradish peroxidase (HRP) stock solution was prepared to 1 μM at pH 7.4. The reactions were carried out in PBS, pH 7.4 in a 96 well plate (total volume=250 μl/well). The reaction solutions contained Aβ 1-42 at concentrations in the range of 50 nM to 1 μM, copper-glycine chelate (Cu-Gly), was prepared by adding CuCl2 to glycine in the ratio of 1:6 and added to the Aβ in the proportion 2Cu-Gly: 1Aβ), reducing agents including dopamine (5 μM) or ascorbic acid, deacetylated DCF 100 μM, and HRP, 0.1 μM. […] The reaction mixture was incubated at 37 C for 60 min. […] H2O2 concentration may be established by comparing fluorescence with the H2O2 standards. Inhibition of AB H2O2 production was assayed by including a given concentration of test compound(s) in the test wells.

[2] = tested on: Neuronal cortical cells; test: Assay for test compound cytoxicity, MTS (Assay 3(d)); format: cell-based, mouse; conditions: BL6J×129sv, mouse, 4 days, 10 uM
Protocol: Media was then replaced with Neurobasal media (Invitrogen Life Technologies) and B27 supplements (Invitrogen Life Technologies). Cultures were maintained at 37° C. in 5% CO2. Prior to experimentation, the culture medium was replaced with Neurobasal media and B27 minus antioxidants (Invitrogen Life Technologies).
Cell viability is determined using the MTS assay. Culture medium is […] replaced with fresh neurobasal medium plus B27 supplements minus antioxidants. 1/10th volume MTS solution (Cell Titre 96 Aqueous One, Promega Corporation) and incubated at 37° C., 2 hrs. 200 microliter aliquots are measured with a spectrophotometer at 560 nm.
(d) Assay for Test Compound Cytoxicity
Neuronal cortical cells were cultured for five days as per Assay 2 in NB media and B27 supplement.
On day six the test compounds were added to the neuronal cell cultures in NB media and B27 supplement minus antioxidants.
Test compounds were dissolved in 100% DMSO to a concentration of 2.5 mM (10 mM if excess compound was weighed out per vial—then diluted to 2.5 mM). […] Test compounds were not added directly to cells, instead they were added to a 48 well ‘Drug Plate’ as comprised below:
The Drug Plate was incubated at 37° C. for 15 mins. 200 ul of each well was added in triplicate to the corresponding cell plate. The cell plate was incubated at 37 C, for 4 days.
On completion of the assay, 1/10 volume MTS was added per well of plate (ie 25 ul/250 ul). The plates were incubated at 37 C for 2 hrs, and then absorbance was read at 560 nm.

[3] = Aβ 1-42 with Cu-Gly, read-out: Peroxide IC50

T1 sequence (P05067 672-713 limits assumed): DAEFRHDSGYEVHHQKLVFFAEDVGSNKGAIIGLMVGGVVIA

SMILES	IC50 [1, 3]	IC50 ([1]; Peroxide IC50, Aβ 1-42 with Cu-Gly) [µM]	Viable 10 uM [2]
Oc1ccc(CCc2ccc3cccc(O)c3n2)cc1 [compound 91]	50 µM and > 10 µM		
O=C(O)c1cc(O)c2cccc(O)c2n1 [compound 52]		> 100	
COc1ccc(-c2cc(Cl)c3cccnc3c2O)cc1 [compound 814]			31.13
CNc1ccc2c(Cl)cc(Cl)c(O)c2n1 [compound 1047, 5,7-Dichloro-2-methylamino-8-hydroxyquinoline]	> 10 µM		
CC(=O)Oc1ccc(-c2cc(Cl)c3cccnc3c2OC(C)C)s1 [compound 822]	> 10 µM		
CC(C)Oc1c(-c2ccc(F)cc2)cc(Cl)c2cccnc12 [compound 802]	> 10 µM		
Oc1c(-c2cccc(F)c2)cc(Cl)c2cccnc12 [compound 850]	> 10 µM		71.28
Oc1c(-c2ccc(F)cc2F)cc(Cl)c2cccnc12 [compound 973]	> 10 µM		42.38
CC(C)Oc1c(-c2cc(F)cc(F)c2)cc(Cl)c2cccnc12 [compound 820]	> 10 µM		
COc1ccc(-c2cc(Cl)c3cccnc3c2OC(C)C)cc1 [compound 800]	> 10 µM		
CC(C)Oc1c(-c2ccccc2C(F)(F)F)cc(Cl)c2cccnc12 [compound 827]	> 10 µM		
CC(C)Oc1c(-c2ccccc2)cc(Cl)c2cccnc12 [compound 818]	> 10 µM		
CCOC(=O)c1ccccc1-c1ccc2cccc(O)c2n1 [compound 1004]	> 10 µM and 6.6 µM		
O=[N+]([O-])c1cccc(-c2cc(Cl)c3cccnc3c2O)c1 [compound 811]	> 10 µM		78.46
CC(C)Oc1c(F)cc(-c2ccccc2)c2cccnc12 [compound 816]	> 10 µM		
Oc1c(-c2cc(F)cc(F)c2)cc(Cl)c2cccnc12 [compound 813]	> 10 µM		66
Oc1c(I)cc(-c2ccccc2F)c2cccnc12 [compound 865]	> 10 µM		34.07
CC(C)Oc1c(-c2cccc(F)c2)cc(Cl)c2cccnc12 [compound 858]	> 10 µM		
Cc1ccccc1-c1cc(I)c(OC(C)C)c2ncccc12 [compound 826]	> 10 µM		
COc1ccccc1-c1cc(Cl)c2cccnc2c1OC(C)C [compound 819]	> 10 µM		
CC(C)Oc1c(-c2ccccc2C=O)cc(Cl)c2cccnc12 [compound 867]	> 10 µM		
CC(C)Oc1c(F)cc(-c2cc(F)cc(F)c2)c2cccnc12 [compound 817]	> 10 µM		
Oc1c(-c2ccccc2F)cc(Cl)c2cccnc12 [compound 815]	> 10 µM		53.68
COc1cccc2ccc(C(=O)NCCc3ccccn3)nc12 [compound 1022]	> 10 µM		
Cc1ccccc1-c1cc(Cl)c2cccnc2c1OC(C)C [compound 866]	> 10 µM		
O=C(O)CNC(=O)c1ccc2cccc(O)c2n1 [compound 956]	> 10 µM		89
Cc1nccn1-c1ccc2cccc(O)c2n1 [compound 993]	> 10 µM		
COc1cccc(-c2cc(Cl)c3cccnc3c2OC(C)C)c1 [compound 801]	> 10 µM		
CC(C)Oc1c(I)cc(-c2ccccc2F)c2cccnc12 [compound 856]	> 10 µM		

Continued, in another order:

IC50 [1, 3]	IC50 ([1]; Peroxide IC50, Aβ 1-42 with Cu-Gly) [µM]	SMILES	Viable 10 uM [2]
> 10 µM		CC(C)Oc1c(I)cc(Cl)c2cccnc12 [compound 804]	
> 10 µM		c1ccc(COc2cccc3cccnc23)cc1 [compound 855]	
7.8 µM		CC(=O)NCc1ccc2cccc(O)c2n1 [compound 967]	90.69
> 10 µM		CC(C)Oc1c(-c2ccccc2F)cc(Cl)c2cccnc12 [compound 803]	
> 10 µM		Brc1ccc(OCc2ccccc2)c2ncccc12 [compound 821]	
0.64 µM		Oc1cccc2cc3ccccc3nc12 [compound 1043]	
90 µM		O=S(=O)(O)c1ccc2cccc(O)c2n1 [compound 50]	
4.5 µM		O=Cc1ccccc1-c1cc(Cl)c2cccnc2c1O [compound 849]	98.83
> 10 µM		Oc1cccc2ccc(-n3ccnc3)nc12 [compound 965]	
7.1 µM		Oc1cccc2ccc(-n3cccn3)nc12 [compound 964, 2-pyrazol-1-yl-quinolin-8-ol]	
> 10 µM		CC(C)Oc1c(I)cc(-c2ccc(C(F)(F)F)cc2)c2cccnc12 [compound 823]	
> 10 µM		COc1ccccc1-c1cc(I)c(OC(C)C)c2ncccc12 [compound 825]	
> 10 µM		Oc1c(-c2ccccc2)cc(Cl)c2cccnc12 [compound 808]	71.89
> 10 µM		O=S(=O)(NCCc1c[nH]cn1)c1ccc2cccc(O)c2n1 [compound 1035]	
> 10 µM		CC(C)Oc1c(-c2ccc(N(C)C)cc2)cc(Cl)c2cccnc12 [compound 868]	
> 10 µM		Oc1c(-c2ccsc2)cc(Cl)c2cccnc12 [compound 972]	30.59

IC50 [1, 3]	IC50 ([1]; Peroxide IC50, Aβ 1-42 with Cu-Gly) [µM]	SMILES	Viable 10 uM [2]
> 10 µM		Oc1c(-c2cc(Cl)c3cccnc3c2O)cc(Cl)c2cccnc12 [compound 971]	84.29
0.32 µM		CC(=O)Nc1ccc(O)c2ncccc12 [compound 1028]	
6.7 µM		Oc1c(-c2cc3ccccc3s2)cc(Cl)c2cccnc12 [compound 970]	32.33
> 10 µM		CC(C)Oc1c(-c2cccc([N+](=O)[O-])c2)cc(Cl)c2cccnc12 [compound 857]	
> 10 µM		COc1ccccc1-c1cc(-c2ccccc2OC)c2cccnc2c1OC(C)C [compound 824]	
> 10 µM		O=C(O)CNC(=O)c1cc(O)c2cccc(O)c2n1 [compound 992]	
> 10 µM		OCC1OC(Oc2cccc3cccnc23)[C@H](O)[C@@H](O)[C@H]1O (some centres unmarked) [compound 62]	
> 10 µM		O=C(NCc1nccs1)c1ccc2cccc(O)c2n1 [compound 1019]	
> 10 µM		Oc1c(-c2ccc(F)cc2)cc(Cl)c2cccnc12 [compound 812]	75.36
> 10 µM		CC(C)Oc1c(I)cc(I)c2cccnc12 [compound 807]	
> 10 µM		Cc1ccccc1-c1cc(Cl)c2c(-c3ccccc3C)ccnc2c1OC(C)C [compound 805]	
40 µM		O=C(O)c1ccc2cccc(O)c2n1 [compound 57]	
90 µM		O=C(O)C1OC(Oc2cccc3cccnc23)[C@H](O)[C@@H](O)[C@H]1O (some centres unmarked) [compound 39]	
0.5 µM		Nc1cnc2c(O)c(Cl)cc(Cl)c2c1 [compound 1060, 3-amino-5,7-dichloro-8-hydroxyquinoline]	
0.44 µM		Oc1ccc(F)c2cccnc12 [compound 1034]	
